Values quoted from earlier work in patent US6368616B1, “Aqueous suspension for nasal administration of loteprednol” (Senju Pharmaceutical Co., Ltd., priority 1997, dated 2002).

- solubility in water: substantially insoluble in water
Structure (SMILES): CCOC(=O)O[C@]1(C(=O)OCCl)CC[C@H]2[C@@H]3CCC4=CC(=O)C=C[C@]4(C)[C@H]3[C@@H](O)C[C@@]21C [loteprednol etabonate, Loteprednol etabonate]
